Results on 1 molecule are retold here after patent publication US20250195660A1, “INACTIVATING BACTERIA WITH ELECTRIC PULSES AND ANTIBIOTICS” (Purdue Research Foundation, priority 2018, published 2025).

The subject of this assay is gentamicin, streptomycin and sulfonamide resistant Pseudomonas aeruginosa (BEI Resources NR-31040). The assay is described as follows: Inactivation of P. aeruginosa by 300 ns electric pulses and/or antibiotics (CFU plating). The settings on record: 20 kV/cm EPs + 20 μg/mL. It is filed as cell-based. The text has this: Except for rifampicin, the five other antibiotics in these examples primarily target gram-positive bacteria and are largely ineffective or not used against gram-negative bacteria in a clinical setting.
A Blumlein pulsed generator consisting of two lines comprised of twelve 2000 pF capacitors connected by inductors produced 300 ns EPs with rise-times of 30 ns and fall-times of 35 ns at a repetition frequency of 1 Hz (12). The EPs were applied to a standard 2 mm gap electroporation cuvette (Dot Scientific R) filled with a solution containing the microorganisms. Used was a Luria broth of 0.5% salinity (5 grams of NaCl/Liter) for the solution to electrically match the resistance of the sample with the impedance of the pulse generator (11Ω) to prevent signal reflection. The voltage measurements were taken using a LeCroy PPE 20 kV high voltage probe with a 1000:1 attenuation recorded by a TeleDyne LeCroy® Waverunner 6 Zi Oscilloscope with a bandwidth of 4 GHZ.
The gram-negative strains included a carbapenem-resistant Escherichia coli (ATCC® BA-2452TM, New Delhi metallo-beta-lactamase NDM-1 positive.), Klebsiella pneumoniae (ATCC® BAA-2146TM NDM-I positive), and a gentamicin, streptomycin and sulfonamide resistant Pseudomonas aeruginosa (BEI Resources NR-31040). Assessed was the gram-positive strain of methicillin resistant Staphylococcus aureus (USA300-0114 strain), which is also resistant to erythromycin and tetracycline. Samples were cultured in Luria broth (LB Broth Lennox, powder microbial growth medium, SIGMA-ALDRICH®) by taking 25 mL of broth in a 50 mL sterile conical tube and incubating in a shaker for 16 h at 37° C. Samples were diluted 50% by adding 25 mL media to the incubated sample as we plated controls for each experiment and condition.
Samples were treated in 2 mm gap cuvettes containing 365 μL of sample between the electrodes, with bio-grade mineral oil added on top of the electrode plates to prevent arcing.
To establish a common baseline for comparing different NSEP parameters, we fixed the energy density U delivered to the cuvettes according to Formula (1) (above). For 300 ns EPs, 500 EPs at 20 kV/cm and 222 EPs at 30 kV/cm delivered the same energy to the sample.
Tissue culture Petri dishes from VWR R (15 cm diameter, 10 mm height) were utilized for plating. Each plate was covered with 15 mL of Luria broth (Agar, microbiology tested powder, SIGMA-ALDRICH®), which was prepared by adding 20 g of LB Lennox (SIGMA-ALDRICH) and 15 g/L of agar to water prior to being autoclaved. The salinity of the agar was the same as the LB (0.5% NaCl) to minimize additional environmental stressors on the bacteria.
Removed was 20 μL from each cuvette and added to 180 μL of PBS in a 96-well dish in triplicate. Each well was then diluted by a ratio of 10:1 five additional times by taking 20 μL of the diluted sample into subsequent wells using multi-channel pipettes (using fresh tips for each dilution). Plated were the six dilutions of each sample two times each by adding 4 μL from each well onto the Petri dish using a multi-channel pipette, which allowed the plating of all three replicates on the same plate to achieve n=6. These plates were then cultured overnight in an incubator at 37° C., and counted the next day.

As for `CO[C@H]1/C=C/O[C@@]2(C)Oc3c(C)c(O)c4c(O)c(c(/C=N/N5CCN(C)CC5)c(O)c4c3C2=O)NC(=O)/C(C)=C\C=C\[C@H](C)[C@H](O)[C@@H](C)[C@@H](O)[C@@H](C)[C@H](OC(C)=O)[C@@H]1C` [rifampicin], the “synergy (FIG. 11B legend)” value is “approximately 2 log”.
